Where two headings read alike, the source gives them in different places.
Molecular target: Recombinant human cathepsin S (CatS) (Homo sapiens, UniProt P25774)
Assay: Recombinant human cathepsin S (CatS) inhibition assay, fluorogenic substrate Z-Valine-Valine-Arginine-AMC;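 note: Baculovirus-expressed CatS in pH 5.0 sodium acetate buffer with DTT and NaCl, fluorescence read each minute over 20 min, inhibition derived from rate slope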

Sequence of Recombinant human cathepsin S (CatS) (P25774 115-331): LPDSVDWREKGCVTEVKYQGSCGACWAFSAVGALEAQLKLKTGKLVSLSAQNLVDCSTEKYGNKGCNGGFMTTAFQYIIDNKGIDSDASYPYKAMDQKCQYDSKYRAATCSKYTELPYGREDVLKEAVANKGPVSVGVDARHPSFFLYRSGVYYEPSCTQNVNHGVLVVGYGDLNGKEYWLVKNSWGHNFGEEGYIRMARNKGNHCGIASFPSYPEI

| IC50 | Structure (SMILES) | IC50 (CatS IC50) |
| --- | --- | --- |
| 120 nM | CC(C)(C)OC(=O)N1C[C@@H]2C[C@H]1CN2CCCn1nc(-c2ccc(Cl)c(C#Cc3ccc(CNCc4ccc(Cl)cc4)cc3)c2)c2c1CCN(S(C)(=O)=O)C2 [Example 491, 1,1-Dimethylethyl (1S,4S)-5-{3-[3-(4-chloro-3-{[4-({[(4-chlorophenyl)methyl]amino}methyl)phenyl]ethynyl}phenyl)-5-(methylsulfonyl)-4,5,6,7-tetrahydro-1H-pyrazolo[4,3-c]pyridin-1-yl]propyl}-2,5-diazabicyclo[2.2.1]heptane-2-carboxylate] |  |
| 220 nM | CC(C)(C)OC(=O)N1C[C@H]2C[C@@H]1CN2CCCn1nc(-c2ccc(Cl)c(C#Cc3ccc(CNCc4ccc(Cl)cc4)cc3)c2)c2c1CCN(S(C)(=O)=O)C2 [Example 492, 1,1-Dimethylethyl (1R,4R)-5-{3-[3-(4-chloro-3-{[4-({[(4-chlorophenyl)methyl]amino}methyl)phenyl]ethynyl}phenyl)-5-(methylsulfonyl)-4,5,6,7-tetrahydro-1H-pyrazolo[4,3-c]pyridin-1-yl]propyl}-2,5-diazabicyclo[2.2.1]heptane-2-carboxylate] |  |
|  | CS(=O)(=O)N1CCc2c(c(-c3ccc(Cl)c(C#Cc4ccc(CNCc5ccc(Cl)cc5)cc4)c3)nn2CCCN2C[C@@H]3C[C@H]2CN3)C1 [Example 493, 1-[4-({2-Chloro-5-[1-{3-[(1S,4S)-2,5-diazabicyclo[2.2.1]hept-2-yl]propyl}-5-(methylsulfonyl)-4,5,6,7-tetrahydro-1H-pyrazolo[4,3-c]pyridin-3-yl]phenyl}ethynyl)phenyl]-N-[(4-chlorophenyl)methyl]methanamine] | 300 nM |
|  | CS(=O)(=O)N1CCc2c(c(-c3ccc(Cl)c(C#Cc4ccc(CNCc5ccc(Cl)cc5)cc4)c3)nn2CCCN2C[C@H]3C[C@@H]2CN3)C1 [Example 494, 1-[4-({2-Chloro-5-[1-{3-[(1R,4R)-2,5-diazabicyclo[2.2.1]hept-2-yl]propyl}-5-(methylsulfonyl)-4,5,6,7-tetrahydro-1H-pyrazolo[4,3-c]pyridin-3-yl]phenyl}ethynyl)phenyl]-N-[(4-chlorophenyl)methyl]methanamine] | 310 nM |
|  | CN(Cc1ccc(Cl)cc1)Cc1ccc(C#Cc2cc(-c3nn(CCCN4CCOCC4)c4c3CN(S(C)(=O)=O)CC4)ccc2Cl)cc1 [Example 495, 1-[4-({2-Chloro-5-[5-(methylsulfonyl)-1-(3-morpholin-4-ylpropyl)-4,5,6,7-tetrahydro-1H-pyrazolo[4,3-c]pyridin-3-yl]phenyl}ethynyl)phenyl]-N-[(4-chlorophenyl)methyl]-N-methylmethanamine] | 770 nM |
| 70 nM | NC(=O)C(=O)N1CCc2c(c(-c3ccc(Cl)c(C#Cc4ccc(CN[C@@H]5CCCc6ccccc65)cc4)c3)nn2CCCN2CCOCC2)C1 [Example 496, 2-[3-{4-Chloro-3-[(4-{[(1R)-1,2,3,4-tetrahydronaphthalen-1-ylamino]methyl}phenyl)ethynyl]phenyl}-1-(3-morpholin-4-ylpropyl)-1,4,6,7-tetrahydro-5H-pyrazolo[4,3-c]pyridin-5-yl]-2-oxoacetamide] |  |
| 1630 nM | O=C(N1CCOCC1)N1CCc2c(c(-c3ccc(Cl)c(C#Cc4ccc(CNCc5ccc(Cl)cc5)cc4)c3)nn2CCCN2CCOCC2)C1 [Example 497, 1-[4-({2-Chloro-5-[5-(morpholin-4-ylcarbonyl)-1-(3-morpholin-4-ylpropyl)-4,5,6,7-tetrahydro-1H-pyrazolo[4,3-c]pyridin-3-yl]phenyl}ethynyl)phenyl]-N-[(4-chlorophenyl)methyl]methanamine] |  |
| 4560 nM | CN(C)C(=O)N1CCc2c(c(-c3ccc(Cl)c(C#Cc4ccc(CNCc5ccc(Cl)cc5)cc4)c3)nn2CCCN2CCOCC2)C1 [Example 498, 3-(4-Chloro-3-{[4-({[(4-chlorophenyl)methyl]amino}methyl)phenyl]ethynyl}phenyl)-N,N-dimethyl-1-(3-morpholin-4-ylpropyl)-1,4,6,7-tetrahydro-5H-pyrazolo[4,3-c]pyridine-5-carboxamide] |  |
| 160 nM | CC(=O)NCC(=O)N1CCc2c(c(-c3ccc(Cl)c(C#Cc4ccc(CNCc5ccc(Cl)cc5)cc4)c3)nn2CCCN2CCOCC2)C1 [Example 499, N-{2-[3-(4-Chloro-3-{[4-({[(4-chlorophenyl)methyl]amino}methyl)phenyl]ethynyl}phenyl)-1-(3-morpholin-4-ylpropyl)-1,4,6,7-tetrahydro-5H-pyrazolo[4,3-c]pyridin-5-yl]-2-oxoethyl}acetamide] |  |
|  | C[C@H]1COCCN1CCCn1nc(-c2ccc(Cl)c(C#Cc3ccc(CN(C)Cc4ccc(Cl)cc4)cc3)c2)c2c1CCN(S(C)(=O)=O)C2 [Example 500, 1-[4-({2-Chloro-5-[1-{3-[(3S)-3-methylmorpholin-4-yl]propyl}-5-(methylsulfonyl)-4,5,6,7-tetrahydro-1H-pyrazolo[4,3-c]pyridin-3-yl]phenyl}ethynyl)phenyl]-N-[(4-chlorophenyl)methyl]-N-methylmethanamine] | 580 nM |
|  | C[C@H]1COCCN1CCCn1nc(-c2ccc(Cl)c(C#Cc3ccc4c(c3)CN(CC(F)(F)F)CC4)c2)c2c1CCN(S(C)(=O)=O)C2 [Example 501, 7-({2-Chloro-5-[1-{3-[(3S)-3-methylmorpholin-4-yl]propyl}-5-(methylsulfonyl)-4,5,6,7-tetrahydro-1H-pyrazolo[4,3-c]pyridin-3-yl]phenyl}ethynyl)-2-(2,2,2-trifluoroethyl)-1,2,3,4-tetrahydroisoquinoline] | 750 nM |
|  | CN(Cc1ccc(Cl)cc1)Cc1ccc(C#Cc2cc(-c3nn(CCCN4CCN(c5ccccn5)CC4)c4c3CN(S(C)(=O)=O)CC4)ccc2Cl)cc1 [Example 502, 1-{4-[(2-Chloro-5-{5-(methylsulfonyl)-1-[3-(4-pyridin-2-ylpiperazin-1-yl)propyl]-4,5,6,7-tetrahydro-1H-pyrazolo[4,3-c]pyridin-3-yl}phenyl)ethynyl]phenyl}-N-[(4-chlorophenyl)methyl]-N-methylmethanamine] | 110 nM |
|  | CN(Cc1ccc(Cl)cc1)Cc1ccc(C#Cc2cc(-c3nn(CCCN4CCSCC4)c4c3CN(S(C)(=O)=O)CC4)ccc2Cl)cc1 [Example 503, 1-[4-({2-Chloro-5-[5-(methylsulfonyl)-1-(3-thiomorpholin-4-ylpropyl)-4,5,6,7-tetrahydro-1H-pyrazolo[4,3-c]pyridin-3-yl]phenyl}ethynyl)phenyl]-N-[(4-chlorophenyl)methyl]-N-methylmethanamine] | 660 nM |
|  | CS(=O)(=O)N1CCc2c(c(-c3ccc(Cl)c(C#Cc4cccc(CNCCc5ccccc5)c4)c3)nn2CCCN2CCOCC2)C1 [Example 504, N-{[3-({2-Chloro-5-[5-(methylsulfonyl)-1-(3-morpholin-4-ylpropyl)-4,5,6,7-tetrahydro-1H-pyrazolo[4,3-c]pyridin-3-yl]phenyl}ethynyl)phenyl]methyl}-2-phenylethanamine] | 280 nM |
|  | CS(=O)(=O)N1CCc2c(c(-c3ccc(Cl)c(C#Cc4ccc5c(c4)CCN(CC4CC4)C5)c3)nn2CCCN2CCOCC2)C1 [Example 505, 6-({2-Chloro-5-[5-(methylsulfonyl)-1-(3-morpholin-4-ylpropyl)-4,5,6,7-tetrahydro-1H-pyrazolo[4,3-c]pyridin-3-yl]phenyl}ethynyl)-2-(cyclopropylmethyl)-1,2,3,4-tetrahydroisoquinoline] | 630 nM |
|  | CS(=O)(=O)N1CCc2c(c(-c3ccc(Cl)c(C#Cc4cccc(CNCCO)c4)c3)nn2CCCN2CCOCC2)C1 [Example 506, 2-({[3-({2-Chloro-5-[5-(methylsulfonyl)-1-(3-morpholin-4-ylpropyl)-4,5,6,7-tetrahydro-1H-pyrazolo[4,3-c]pyridin-3-yl]phenyl}ethynyl)phenyl]methyl}amino)ethanol] | 520 nM |
| 570 nM | CC(NCc1cccc(C#Cc2cc(-c3nn(CCCN4CCOCC4)c4c3CN(S(C)(=O)=O)CC4)ccc2Cl)c1)c1ccccc1 (stereo not shown) [Example 507, N-{[3-({2-Chloro-5-[5-(methylsulfonyl)-1-(3-morpholin-4-ylpropyl)-4,5,6,7-tetrahydro-1H-pyrazolo[4,3-c]pyridin-3-yl]phenyl}ethynyl)phenyl]methyl}-1-phenylethanamine] |  |
|  | Cc1cccc(CNCc2ccc(C#Cc3cc(-c4nn(CCCN5CCSCC5)c5c4CN(C(N)=O)CC5)ccc3Cl)cc2)c1 [Example 508, 3-(4-Chloro-3-{[4-({[(3-methylphenyl)methyl]amino}methyl)phenyl]ethynyl}phenyl)-1-(3-thiomorpholin-4-ylpropyl)-1,4,6,7-tetrahydro-5H-pyrazolo[4,3-c]pyridine-5-carboxamide] | 110 nM |
|  | CS(=O)(=O)N1CCc2c(c(-c3ccc(Cl)c(C#Cc4cccc(CNCCCO)c4)c3)nn2CCCN2CCOCC2)C1 [Example 509, 3-({[3-({2-Chloro-5-[5-(methylsulfonyl)-1-(3-morpholin-4-ylpropyl)-4,5,6,7-tetrahydro-1H-pyrazolo[4,3-c]pyridin-3-yl]phenyl}ethynyl)phenyl]methyl}amino)propan-1-ol] | 500 nM |
| 450 nM | CS(=O)(=O)N1CCc2c(c(-c3ccc(Cl)c(C#Cc4cccc(CNCC5CCCO5)c4)c3)nn2CCCN2CCOCC2)C1 (stereo not shown) [Example 510, 1-[3-({2-Chloro-5-[5-(methylsulfonyl)-1-(3-morpholin-4-ylpropyl)-4,5,6,7-tetrahydro-1H-pyrazolo[4,3-c]pyridin-3-yl]phenyl}ethynyl)phenyl]-N-(tetrahydrofuran-2-ylmethyl)methanamine] |  |
|  | CS(=O)(=O)N1CCc2c(c(-c3ccc(Cl)c(C#Cc4cccc(CNc5ccccc5)c4)c3)nn2CCCN2CCOCC2)C1 [Example 511, N-{[3-({2-Chloro-5-[5-(methylsulfonyl)-1-(3-morpholin-4-ylpropyl)-4,5,6,7-tetrahydro-1H-pyrazolo[4,3-c]pyridin-3-yl]phenyl}ethynyl)phenyl]methyl}aniline] | 1610 nM |
|  | C[C@H]1COCCN1CCCn1nc(-c2ccc(Cl)c(C#Cc3ccc4c(c3)CCN(C3CC3)C4)c2)c2c1CCN(S(C)(=O)=O)C2 [Example 512, 6-({2-Chloro-5-[1-{3-[(3S)-3-methylmorpholin-4-yl]propyl}-5-(methylsulfonyl)-4,5,6,7-tetrahydro-1H-pyrazolo[4,3-c]pyridin-3-yl]phenyl}ethynyl)-2-cyclopropyl-1,2,3,4-tetrahydroisoquinoline] | 220 nM |
